Patent publication US20260317304A1, “TEAD INHIBITORS AND METHODS OF USE” (Sporos BioDiscovery, Inc., priority 2022, published 2026)

What was measured:
Assay type in all cases: cell-based
Details in all cases: 144 hours
[1] = test system: Mero82 cells; test: Mero82 proliferation and cell viability assay (CTG)
Method: Mero 82 cells were trypsinised, counted and plated at 400 cells/well in 200 μl of growth media in 96 well flat bottom tissue culture treated plates. The plated cells were incubated overnight at 37° C., 5% CO2 before being treated with compounds in triplicate for each assay point. 50 μl of the serially diluted compound was added to each well giving a final DMSO concentration of 0.5% per well and a total volume of 250 μl per well. The treated cells were incubated for 144 hours (6 days) at 37° C., 5% CO2. Following compound treatment, the remaining viable cells were detected using the Promega CellTiter-Glo 2.0 assay as follows: 150 μl of media was removed from each of the wells to be assayed and 100 μl of room temperature CellTiter-Glo 2.0 reagent was added. The plate was placed on an orbital shaker at 500 rpm at room temperature for 2 minutes, and then incubated without shaking for a further 10 minutes at room temperature. 150 μl of cell lysate was removed from each well and dispensed into a single well of a white opaque 96 well plate. Luminescence at 545 nm was read using a BMG CLARIOstar plate reader. The luminescent signal was directly proportional to number of viable cells, the percent of viable cells relative to the DMSO control was then calculated for each assay point. Percent viability relative to DMSO control was plotted against compound concentration and a curve fitted with non-linear regression in GraphPad Prism software. EC50 and absolute IC50 values were calculated using GraphPad Prism software as follows: For EC50 values, a non-constrained four-parameter logistic curve fit was used (Sigmoidal, 4PL, X is concentration). For Absolute IC50 values the baseline was constrained to Y=0 and top at 100 (Absolute IC50, X is concentration). Area Under the Curve (AUC): Prism computes area-under-the-curve by the trapezoidal method. The analysis sees a fitted curve as simply a series of connected XY points. Prism simply computes the area under the “curve” defined by connecting the points by straight lines. The units of the AUC are the units of the Y axis times units of the X axis.
(§1) For EC50 data, the symbol “A” indicates a value of less than 0.2 μM; the symbol “B” indicates a value in the range of from 0.2 μM up to 1 μM; and the symbol “C” indicates a value of greater than 1 μM.

[2] = test system: SDM103T2 cells; test: SDM103T2 proliferation and cell viability assay (CTG)
Method: SDM103T2 cells were trypsinised, counted and plated at 800 cells/well in 200 μl of growth media in 96 well flat bottom tissue culture treated plates. The plated cells were incubated overnight at 37° C., 5% CO2 before being treated with compounds in triplicate for each assay point. 50 μl of the serially diluted compound was added to each well giving a final DMSO concentration of 0.5% per well and a total volume of 250 μl per well. The treated cells were incubated for 144 hours (6 days) at 37° C., 5% CO2. Following compound treatment the remaining viable cells were detected using the Promega CellTiter-Glo 2.0 assay as follows: 150 μl of media was removed from each of the wells to be assayed and 100 μl of room temperature CellTiter-Glo 2.0 reagent was added. The plate was placed on an orbital shaker at 500 rpm at room temperature for 2 minutes, and then incubated without shaking for a further 10 minutes at room temperature. 150 μl of cell lysate was removed from each well and dispensed into a single well of a white opaque 96 well plate. Luminescence at 545 nm was read using a BMG CLARIOstar plate reader. The luminescent signal was directly proportional to number of viable cells, the percent of viable cells relative to the DMSO control was then calculated for each assay point. Percent viability relative to DMSO control was plotted against compound concentration and a curve fitted with non-linear regression in GraphPad Prism software. EC50 and absolute IC50 values were calculated using GraphPad Prism software as follows: For EC50 values a non-constrained four-parameter logistic curve fit was used (Sigmoidal, 4PL, X is concentration). For Absolute IC50 values the baseline was constrained to Y=0 and top at 100 (Absolute IC50, X is concentration). Area Under the Curve (AUC): Prism computes area-under-the-curve by the trapezoidal method. The analysis sees a fitted curve as simply a series of connected XY points. Prism simply computes the area under the “curve” defined by connecting the points by straight lines. The units of the AUC are the units of the Y axis times units of the X axis.
as §1

[3] = test system: BHY cells; test: BHY proliferation and cell viability assay (CTG)
Method: BHY cells were trypsinised, counted and plated at 2500 cells/well in 200 μl of growth media in 96 well flat bottom tissue culture treated plates. The plated cells were incubated overnight at 37° C., 5% CO2 before being treated with compounds in triplicate for each assay point. 50 μl of the serially diluted compound was added to each well giving a final DMSO concentration of 0.5% per well and a total volume of 250 μl per well. The treated cells were incubated for 144 hours (6 days) at 37° C., 5% CO2. Following compound treatment, the remaining viable cells were detected using the Promega CellTiter-Glo 2.0 assay as follows: 150 μl of media was removed from each of the wells to be assayed and 100 μl of room temperature CellTiter-Glo 2.0 reagent was added. The plate was placed on an orbital shaker at 500 rpm at room temperature for 2 minutes, and then incubated without shaking for a further 10 minutes at room temperature. 150 μl of cell lysate was removed from each well and dispensed into a single well of a white opaque 96 well plate. Luminescence at 545 nm was read using a BMG CLARIOstar plate reader. The luminescent signal was directly proportional to number of viable cells, the percent of viable cells relative to the DMSO control was then calculated for each assay point. Percent viability relative to DMSO control was plotted against compound concentration and a curve fitted with non-linear regression in GraphPad Prism software. EC50 and absolute IC50 values are calculated using GraphPad Prism software as follows: For EC50 values, a non-constrained four-parameter logistic curve fit was used (Sigmoidal, 4PL, X is concentration). For Absolute IC50 values the baseline was constrained to Y=0 and top at 100 (Absolute IC50, X is concentration). Area Under the Curve (AUC): Prism computes area-under-the-curve by the trapezoidal method. The analysis sees a fitted curve as simply a series of connected XY points. Prism simply computes the area under the “curve” defined by connecting the points by straight lines. The units of the AUC are the units of the Y axis times units of the X axis. […]

Compound | EC50 [1] [nM] | EC50 [2] [nM] | EC50 [3] [nM]
C=CC(=O)Nc1ccc(C)c(Oc2ccc(Cl)cc2)c1 [Compound 1-3, reference compound] | < 200 | < 200 | < 200
FC(F)(F)c1ccc(CN2CCC(C3CC(Br)=NO3)CC2)cc1 (stereo not shown) [Compound 1-2, reference compound] | > 1000 | > 1000 | > 1000
Cn1cnc(-c2cc([C@@]3(C)CCNC3=O)ccc2Nc2ccc(C(F)(F)F)cc2)c1 (single isomer, unassigned) [Compound 5, 3-methyl-3-(3-(1-methyl-1H-imidazol-4-yl)-4-((4-(trifluoromethyl)phenyl)amino)phenyl)pyrrolidin-2-one] | < 200 | < 200 | 200 to 1000
Cn1nnc(-c2cc([C@]3(C)CCNC3=O)ccc2Nc2ccc(C(F)(F)F)cc2)n1 (stereo in doubt) [Compound 20, 3-methyl-3-(3-(2-methyl-2H-tetrazol-5-yl)-4-((4-(trifluoromethyl)phenyl)amino)phenyl) pyrrolidin-2-one] | < 200 | < 200 | 
Cn1cnc(-c2cc(C3(C)NC(=O)NC3=O)ccc2Nc2ccc(C(F)(F)F)cc2)c1 (single isomer, unassigned) [Compound 15, 5-methyl-5-(3-(1-methyl-1H-imidazol-4-yl)-4-((4-(trifluoromethyl)phenyl)amino)phenyl)imidazolidine-2,4-dione] | < 200 | < 200 | 
